Assay results reported in patent US6214805A, “RNase L activators and antisense oligonucleotides effective to treat RSV infections” (priority 1997, dated 2001).

Tests used:
Hep-2 Cells = assay: Neutral red uptake assay of cytotoxicity in HEp-2 cells; type: cell-based, human; conditions: Homo sapiens
Description: Embryonic African green monkey kidney cells (MA-104) were obtained from BioWhittaker, Inc. (Walkersville, Md.). HEp-2 cells were propagated from a human epidermoid carcinoma of the larynx (American Type Culture Collection, ATCC; Rockville, Md.). The cells were grown in minimal essential medium. (MEM, Gibco-BRL, Gaitherburg, Md.) supplemented with 0.1% NaHCO3 and 10% fetal bovine serum (FBS, Hyclone Laboratories, Logan Utah.). When performing antiviral assays, serum was reduced to 2% and 50 μg/ml gentamicin (Sigma Chemical Company, St. Louis, Mo.) was added to the medium.
(§1) This assay was performed by a modified method as described by Cavenaugh et al. (Cavenaugh et al. 1990, Invest. New Drugs 8:347-354). Briefly, medium was removed from each well of a plate scored for CPE from a CPE inhibition assay, 0.2 ml of neutral red (0.034% in PSS) was added to each of the wells of that plate and the plate incubated for 2 hr at 37° C. in the dark. The neutral red solution was removed from the wells and the wells rinsed twice with PBS (pH 7.4). Equal volumes (0.1 ml) of absolute ethanol and Sorenson citrate buffer (0.1 M sodium citrate, 0.1 M HCI, pH 4.2) were mixed together and added to each well. Plates were incubated in the dark for 30 min. at room temperature to solubilize the dye. The plates were then gently mixed on a 96-well plate adapted vortexer for 1 min. Absorbances at 540 nm and 450 nm were read with a microplate reader (Bio-Tek EL 1309; Bio-Tek Instruments, Inc. Winooski, Vt.). Absorbance values were expressed as percents of untreated controls and EC50 and IC50 values were calculated by regression analysis.

RSV Long (A) = assay: Neutral red uptake assay in HEp-2 cells, RSV strain Long; type: cell-based, Respiratory syncytial virus; conditions: Table 12, neutral red
Description: as §1
In this series, MP351 was added once a day for two days with fresh medium

RSV strain A2 [1] = assay: CPE inhibition assay in HEp-2 cells; type: cell-based, Respiratory syncytial virus; conditions: for EC50: human respiratory syncytial virus
Description: The CPE inhibition assay used in this study was performed as described by Sidwell and Huffman (Sidwell et al., 1971, Appl. Microbiol. 22:7979-7801) with slight modifications. Varying concentrations of test compounds were added to each plate containing near confluent cell monolayers (1×10^5 cells/well) followed immediately by the addition of virus at a multiplicity of infection (MOI)=0.01, and then incubated at 37° C. […] All compounds were assayed for virus inhibition in quadruplicate and for cytotoxicity in duplicate. For each compound, two wells were set aside as uninfected, untreated cell controls per test and four wells per test received virus only and represented controls for virus replication. […] For all CPE-based assays, the 50% effective concentration (EC50) was calculated by regression analysis using the means of the CPE ratings at each concentration of compound.

RSV strain A2 [2] = assay: Neutral red uptake assay of CPE inhibition in HEp-2 cells; type: cell-based, Respiratory syncytial virus; conditions: for EC50: human respiratory syncytial virus
Description: as §1

[3] = HEp-2, 24 h, Table 11, neutral red, q.d. 1 day (added along with virus, never replenished), HEp2
[4] = HEp-2, 48 h, Table 11, neutral red, B.I.D. 2 days, HEp2

`NC(=O)c1ncn([C@@H]2O[C@H](CO)[C@@H](O)[C@H]2O)n1` [Ribavirin] gave an IC50 (Hep-2 Cells; HEp-2, 0 h, Table 13, neutral red, q.d., Day 0, HEp-2) of 328 µM, an IC50 (Hep-2 Cells; [3]) of 480 µM and an IC50 (Hep-2 Cells; HEp-2, 24 h, Table 13, neutral red, q.d., Day 1, HEp-2) of 1130 µM. The IC50 (Hep-2 Cells; [4]) was 1050 µM, the IC50 (Hep-2 Cells; HEp-2, 48 h, Table 13, neutral red, q.d., Day 2, HEp-2) was 320 µM and the IC50 (Hep-2 Cells; HEp-2, 72 h, Table 11, neutral red, B.I.D. 3 days, HEp2) was 700 µM. The IC50 (Hep-2 Cells; HEp-2, 72 h, Table 11, neutral red, q.d. 3 days, HEp2) was 1010 µM, the IC50 (Hep-2 Cells; HEp-2, 96 h, Table 11, neutral red, B.I.D. 4 days, HEp2) was 600 µM and the IC50 (Hep-2 Cells; HEp-2, 96 h, Table 11, neutral red, q.d. 4 days, HEp2) was 730 µM. For the same molecule, the IC50 (Hep-2 Cells; HEp-2, Table 12, neutral red, test with 393 (clinical isolate), HEp-2) was 96 µM, the IC50 (Hep-2 Cells; HEp-2, Table 12, neutral red, test with CH18537 (B), HEp-2) was 233 µM and the IC50 (Hep-2 Cells; HEp-2, Table 12, neutral red, test with Long (A), HEp-2) was 280 µM. It also gave an SI (RSV Long (A)) of 23, an EC50 (RSV Long (A); human respiratory syncytial virus, 48 h, once a day for two days) of 12 µM and an SI (RSV strain A2 [1]; Table 10, CPE, B.I.D. 2 days, HEp2) of over 57. It also gave an SI (RSV strain A2 [1]; Table 10, CPE, B.I.D. 3 days, HEp2) of over 180, an SI (RSV strain A2 [1]; Table 10, CPE, B.I.D. 4 days, HEp2) of 57 and an SI (RSV strain A2 [1]; Table 10, CPE, q.d. 1 day (added along with virus, never replenished), HEp2) of 57. It also gave an SI (RSV strain A2 [1]; Table 10, CPE, q.d. 3 days, HEp2) of over 57, an SI (RSV strain A2 [1]; Table 10, CPE, q.d. 4 days, HEp2) of over 57 and an SI (RSV strain A2 [1]; Table 13, CPE, q.d., Day 0, HEp-2) of 30. It also gave an SI (RSV strain A2 [1]; Table 13, CPE, q.d., Day 1, HEp-2) of 8, an SI (RSV strain A2 [1]; Table 13, CPE, q.d., Day 2, HEp-2) of 80 and an EC50 (RSV strain A2 [1]; HEp-2, 0 h, Table 13, CPE, q.d., Day 0 (added immediately after virus exposure), HEp-2) of 12 µM. For the same molecule, the EC50 (RSV strain A2 [1]; HEp-2, 24 h, Table 10, CPE, q.d. 1 day (added along with virus, never replenished), HEp2) was 4 µM, the EC50 (RSV strain A2 [1]; HEp-2, 24 h, Table 13, CPE, q.d., fresh compound up to Day 1 post infection, HEp-2) was 4 µM and the EC50 (RSV strain A2 [1]; HEp-2, 48 h, Table 10, CPE, B.I.D. 2 days, HEp2, read-out: EC50) was under 4 µM. It also gave an EC50 (RSV strain A2 [1]; HEp-2, 48 h, Table 13, CPE, q.d., fresh compound up to Day 2 post infection, HEp-2, read-out: EC50) of 4 µM, an EC50 (RSV strain A2 [1]; HEp-2, 72 h, Table 10, CPE, B.I.D. 3 days, HEp2, read-out: EC50) of under 4 µM and an EC50 (RSV strain A2 [1]; HEp-2, 72 h, Table 10, CPE, q.d. 3 days, HEp2, read-out: EC50) of under 4 µM. The EC50 (RSV strain A2 [1]; HEp-2, 96 h, Table 10, CPE, B.I.D. 4 days, HEp2, read-out: EC50) was 4 µM, the EC50 (RSV strain A2 [1]; HEp-2, 96 h, Table 10, CPE, q.d. 4 days, HEp2, read-out: EC50) was under 4 µM and the SI (RSV strain A2 [2]; Table 11, neutral red, B.I.D. 2 days, HEp2) was 130. The SI (RSV strain A2 [2]; Table 11, neutral red, B.I.D. 3 days, HEp2) was over 175, the SI (RSV strain A2 [2]; Table 11, neutral red, B.I.D. 4 days, HEp2) was 75 and the SI (RSV strain A2 [2]; Table 11, neutral red, q.d. 1 day (added along with virus, never replenished), HEp2) was over 120. It also gave an SI (RSV strain A2 [2]; Table 11, neutral red, q.d. 3 days, HEp2) of 126, an SI (RSV strain A2 [2]; Table 11, neutral red, q.d. 4 days, HEp2) of 36 and an SI (RSV strain A2 [2]; Table 13, neutral red, q.d., Day 0, HEp-2) of 27. For the same molecule, the SI (RSV strain A2 [2]; Table 13, neutral red, q.d., Day 1, HEp-2) was 28, the SI (RSV strain A2 [2]; Table 13, neutral red, q.d., Day 2, HEp-2) was 80 and the EC50 (RSV strain A2 [2]; HEp-2, 0 h, Table 13, neutral red, q.d., Day 0 (added immediately after virus exposure), HEp-2) was 12 µM. The EC50 (RSV strain A2 [2]; [3]) was 4 µM, the EC50 (RSV strain A2 [2]; HEp-2, 24 h, Table 13, neutral red, q.d., fresh compound up to Day 1 post infection, HEp-2) was 40 µM and the EC50 (RSV strain A2 [2]; [4]) was 8 µM. For the same molecule, the EC50 (RSV strain A2 [2]; HEp-2, 48 h, Table 13, neutral red, q.d., fresh compound up to Day 2 post infection, HEp-2, read-out: EC50) was 4 µM, the EC50 (RSV strain A2 [2]; HEp-2, 72 h, Table 11, neutral red, B.I.D. 3 days, HEp2, read-out: EC50) was under 4 µM and the EC50 (RSV strain A2 [2]; HEp-2, 72 h, Table 11, neutral red, q.d. 3 days, HEp2, read-out: EC50) was 8 µM. It also gave an EC50 (RSV strain A2 [2]; HEp-2, 96 h, Table 11, neutral red, B.I.D. 4 days, HEp2, read-out: EC50) of 8 µM and an EC50 (RSV strain A2 [2]; HEp-2, 96 h, Table 11, neutral red, q.d. 4 days, HEp2, read-out: EC50) of 20 µM.
